# Values quoted from earlier work, collected in patent US8691283B2, “Standardized bee venom preparation” (priority 2000, dated 2014).
# Tested on: hypophyseal-adrenal system
# Conditions: melittin stimulates the hypophyseal-adrenal system and produces cortisone
smiles,measurement,value
"CC[C@H](C)[C@H](NC(=O)CN)C(=O)NCC(=O)N[C@@H](C)C(=O)N[C@H](C(=O)N[C@@H](CC(C)C)C(=O)N[C@@H](CCCCN)C(=O)N[C@H](C(=O)N[C@@H](CC(C)C)C(=O)N[C@H](C(=O)N[C@H](C(=O)NCC(=O)N[C@@H](CC(C)C)C(=O)N1CCC[C@H]1C(=O)N[C@@H](C)C(=O)N[C@@H](CC(C)C)C(=O)N[C@H](C(=O)N[C@@H](CO)C(=O)N[C@@H](Cc1c[nH]c2ccccc12)C(=O)N[C@H](C(=O)N[C@@H](CCCCN)C(=O)N[C@@H](CCCNC(=N)N)C(=O)N[C@@H](CCCCN)C(=O)N[C@@H](CCCNC(=N)N)C(=O)N[C@@H](CCC(N)=O)C(=O)N[C@@H](CCC(N)=O)C(N)=O)[C@@H](C)CC)[C@@H](C)CC)[C@@H](C)O)[C@@H](C)O)C(C)C)C(C)C [melittin, Melittin]",potency relative to hydrocortisone,100 times
